Test system: isolated monoclonal antibodies (groups 3/B4-1/F8 and 1/E2-5/B5)
Test: competitive ELISA with the isolated monoclonal antibodies (both groups)
Type: binding, mouse
Conditions: both antibody groups
Description: The screening conjugates described in Section 1.2 were used for this purpose. In addition, "Maxisorp" (from the Nunc Corporation) microtiter plates were used. The immunoscreening method, i.e., an indirect, competitive immunoassay with free antibodies, is shown in the form of a schematic diagram in FIG. 7. First, each of the microtiter plate depressions was coated with 300 μL of hapten OVA conjugate (10 μg/mL in carbonate buffer) (coating). This was carded out over the course of 15-18 hours at 4° C. Then the depressions were washed 3 times with, for example, PBS Tween 20 buffer. To block the unoccupied bonding sites on the microtiter plate, about 300 μL of 0.1% OVA solution was added to each depression. […]
In this immunoassay, the hapten-OVA conjugates bound in the solid phase (Section 1.2) compete with the free antigen in the form of a solution of a mixture of pyrethroids. […] The reaction is stopped after 30 minutes with 2N H2 SO4 and evaluated by spectrophotometry. […]
If the cell culture supernatant contains specific antibodies with high affinity for at least one substance in the mixture in question (MIX I/II), these bind to the free hapten present in excess (pyrethrins/pyrethroids) and not to the hapten conjugate bound in the solid phase. […] After a predetermined incubation time, the microtiter plates are evaluated by spectrophotometry. […]

SMILES	cross reactivity (in words)
CC1(C)[C@H](C(=O)O)[C@@H]1C=C(Cl)Cl [cis-PMS, (1R,cis)-permethric acid]	little or no cross-reactivity
CC1(C)[C@H](C=C(Cl)Cl)[C@H]1C(=O)O [trans-PMS, (1R,trans)-permethric acid]	little or no cross-reactivity

Test system: hybridoma clone MAB 3/B4-1/F8
Test: competitive immunoassay (ELISA), cross reactivity with MAB 3/B4-1/F8
Type: binding, mouse
Conditions: n.b. = not determinable
Description: (§1) The screening conjugates described in Section 1.2 were used for this purpose. In addition, "Maxisorp" (from the Nunc Corporation) microtiter plates were used. The immunoscreening method, i.e., an indirect, competitive immunoassay with free antibodies, is shown in the form of a schematic diagram in FIG. 7. First, each of the microtiter plate depressions was coated with 300 μL of hapten OVA conjugate (10 μg/mL in carbonate buffer) (coating). This was carded out over the course of 15-18 hours at 4° C. Then the depressions were washed 3 times with, for example, PBS Tween 20 buffer. To block the unoccupied bonding sites on the microtiter plate, about 300 μL of 0.1% OVA solution was added to each depression. This batch was incubated for 1-2 hours and then washed again as described. To verify the results, two separate screening processes were used (FIG. 7):
(§2) In this immunoassay, the hapten-OVA conjugates bound in the solid phase (Section 1.2) compete with the free antigen in the form of a solution of a mixture of pyrethroids. For the direct detection (Section 5.1), 100 μL of PBS buffer and 100 μL of cell culture supernatant (Section 4) per depression are incubated for one hour at room temperature under gentle agitation. Then a washing step is carried out with PBS Tween 20 buffer. This is followed by incubation with the peroxidase-(POD)-conjugated anti-mouse antibodies known to those skilled in the art. After the addition of enzyme substrate, the color is developed. The reaction is stopped after 30 minutes with 2N H2 SO4 and evaluated by spectrophotometry. The positive hybridoma cells, which secrete a specific antibody, give a strong color signal.
(§3) For this purpose, 100 μL of analyte solution (10 mg/L of pyrethroid substance in mixture MIX I/II in PBS buffed and 100 μL of culture supernatant (Section 4) per depression in the microtiter plate are incubated for 1 hour at room temperature.
(§4) If the cell culture supernatant contains specific antibodies with high affinity for at least one substance in the mixture in question (MIX I/II), these bind to the free hapten present in excess (pyrethrins/pyrethroids) and not to the hapten conjugate bound in the solid phase. The monoclonal antibodies bound to the hapten are then removed in the following washing step. This is followed by the incubation, known to those skilled in the art, with peroxidase-(POD)-conjugated anti-mouse antibodies and by subsequent addition of enzyme substrate and color development. After a predetermined incubation time, the microtiter plates are evaluated by spectrophotometry. Positive hybridoma cells which secrete an antibody selective for the pyrethroids in MIX I/II give a weaker color signal or no signal at all. Hybridoma cells which secrete antibodies which bind non-specifically to the hapten conjugate cannot be displaced by the excess pyrethroid and give a corresponding color signal. If no antibodies are present in the culture supernatant, there is no color reaction in either of the two cases.
(§5) Pyrethrum, pyrethroids, their derivatives, and/or their metabolites are detected with the help of the hapten screening conjugates and biotin tracers described in Section 1 and by the use of the competitive immunoassay (ELISA) described in Section 5.
(§6) In the direct-competitive test for low-molecular substances such as pyrethroids, a competition for a constant number of antibody binding sites takes place between an unmarked analyte of unknown quantity (here: pyrethroid) and a tracer (marked hapten) of known quantity. The antibody is immobilized on a solid phase. Depending on the amount of unmarked analyte in the sample, the antibody binding sites are occupied to a greater or lesser extent by tracer or analyte. The tracer is detected by a color reaction, which means that the detection signal on the solid phase is inversely proportional to the amount of analyte detected. The color development is measured by spectrophotometry at a defined wavelength. […]

SMILES	% cross reactivity
CC(C)=CC1C(C(=O)O)C1(C)C (stereo not shown) [CTS, chrysanthemum acid]	n.b.
O=C(O)c1cccc(Oc2ccccc2)c1 [PBZ, 3-phenoxybenzoic acid]	n.b.
C=CCC1=C(C)C(OC(=O)C2C(C=C(C)C)C2(C)C)CC1=O (stereo not shown) [allethrin]	45%
C=CCC1=C(C)C(OC(=O)[C@@H]2[C@@H](C=C(C)C)C2(C)C)CC1=O (stereo partly shown) [bioallethrin]	100%
CC1(C)[C@H](C(=O)O)[C@@H]1C=C(Cl)Cl [cis-PMS, (1R,cis)-permethric acid]	n.b.
CC1(C)C(C=C(Cl)Cl)C1C(=O)OC(C#N)c1ccc(F)c(Oc2ccccc2)c1 (stereo not shown) [cyfluthrin]	n.b.
CC1(C)C(C=C(Cl)Cl)C1C(=O)OC(C#N)c1cccc(Oc2ccccc2)c1 (stereo not shown) [cypermethrin]	n.b.
CC1(C)[C@H](C(=O)O[C@H](C#N)c2cccc(Oc3ccccc3)c2)[C@@H]1C=C(Br)Br [deltamethrin]	n.b.
CC1(C)[C@H](C=C(Cl)Cl)[C@H]1C(=O)OCc1c(F)c(F)c(F)c(F)c1F [fenfluthrin]	2%
CC(C)C(C(=O)OC(C#N)c1cccc(Oc2ccccc2)c1)c1ccc(Cl)cc1 (stereo not shown) [fenvalerat]	n.b.
CC1(C)C(C=C(Cl)Cl)C1C(=O)OCc1cccc(Oc2ccccc2)c1 (stereo not shown) [permethrin]	n.b.
CC(C)=CC1C(C(=O)OCc2cccc(Oc3ccccc3)c2)C1(C)C (stereo not shown) [phenothrin]	n.b.
CC1(C)[C@H](C=C(Cl)Cl)[C@H]1C(=O)O [trans-PMS, (1R,trans)-permethric acid]	n.b.

Test system: hybridoma clone MAB 1/E2-5/B5
Test: competitive immunoassay (ELISA), cross reactivity with MAB 1/E2-5/B5
Type: binding, mouse
Conditions: n.b. = not determinable
Description: as §1, §2, §3, §4, §5, §6

SMILES	% cross reactivity
CC(C)=CC1C(C(=O)O)C1(C)C (stereo not shown) [CTS, chrysanthemum acid]	n.b.
O=C(O)c1cccc(Oc2ccccc2)c1 [PBZ, 3-phenoxybenzoic acid]	n.b.
C=CCC1=C(C)C(OC(=O)C2C(C=C(C)C)C2(C)C)CC1=O (stereo not shown) [allethrin]	100%
C=CCC1=C(C)C(OC(=O)[C@@H]2[C@@H](C=C(C)C)C2(C)C)CC1=O (stereo partly shown) [bioallethrin]	104%
CC1(C)[C@H](C(=O)O)[C@@H]1C=C(Cl)Cl [cis-PMS, (1R,cis)-permethric acid]	n.b.
CC1(C)[C@H](C(=O)O[C@H](C#N)c2cccc(Oc3ccccc3)c2)[C@@H]1C=C(Br)Br [deltamethrin]	n.b.
CC1(C)[C@H](C=C(Cl)Cl)[C@H]1C(=O)OCc1c(F)c(F)c(F)c(F)c1F [fenfluthrin]	13%
CC(C)C(C(=O)OC(C#N)c1cccc(Oc2ccccc2)c1)c1ccc(Cl)cc1 (stereo not shown) [fenvalerat]	n.b.
CC(C)=CC1C(C(=O)OCc2cccc(Oc3ccccc3)c2)C1(C)C (stereo not shown) [phenothrin]	86%
CC1(C)[C@H](C=C(Cl)Cl)[C@H]1C(=O)O [trans-PMS, (1R,trans)-permethric acid]	> 1%
